In patent publication US11031562B2, “Metal complexes” (Merck Patent GmbH, priority 2015, dated 2021):

Legend:
Type in all cases: physicochemical
[1] = Oxidation and reduction potentials by CV (HOMO, LUMO); settings: in eV (unit assumed); for HOMO: Ox. in DCM; for LUMO: Red. in THF
[2] = Photoluminescence in solution (PL-max., PL quantum efficiency); settings: solvent toluene; room temperature, degassed solution
[3] = Thermal stability: thermal storage at 360° C. for 7 days, checked by 1H NMR
[4] = Photostability in anhydrous C6D6 solution under irradiation with light of about 455 nm, checked by 1H NMR; settings: irradiation with light of wavelength about 455 nm

SMILES | HOMO [1] | LUMO [1] | PL-max. [2] | PLQE [2] | Therm. stab. [3] | Photo. stab. [4]
c1ccc(-c2cc(-c3ccccc3)cc(-c3cccc(-c4cc[c]5c(c4)-c4cccc[n+]4[Ir-3]546([c]5ccc(-c7cccc(-c8cc(-c9ccccc9)cc(-c9ccccc9)c8)c7)cc5-c5cccc[n+]54)[c]4ccc(-c5cccc(-c7cc(-c8ccccc8)cc(-c8ccccc8)c7)c5)cc4-c4cccc[n+]46)c3)c2)cc1 [Ir1, reference compound] | −5.09 | −1.99 | 513 | 0.97 |  | 
Cc1cc2[n+](cc1-c1ccccc1)[Ir-3]13([c]4ccccc4-c4cccc[n+]41)([c]1ccccc1-c1cccc[n+]13)[c]1ccccc1-2 [Ir2, reference compound] | −5.05 | −1.71 | 516 | 0.97 | decomposition | decomposition
O=C1Oc2cc3cc(c2)OC(=O)c2ccc4[c](c2)[Ir-3]25([c]6cc1ccc6-c1cccc[n+]12)([c]1cc(ccc1-c1cccc[n+]15)C(=O)O3)[n+]1ccccc1-4 [Ir(L200)] | −5.66 | −2.64 | 552 | 0.94 | no decomp. | no decomp.
CN1C(=O)c2ccc3[c](c2)[Ir-3]245([c]6cc(ccc6-c6cccc[n+]62)C(=O)N(C)c2cc1cc(c2)N(C)C(=O)c1ccc([c]4c1)-c1cccc[n+]15)[n+]1ccccc1-3 [Ir(L300)] | −5.34 | −2.29 | 539 | 0.95 | no decomp. | no decomp.
